Measurements as given in the supplement of paper PMC10307832.

Legend:
Experiment in all cases: relative viability (nuclei count vs DMSO), 5 days (fraction); higher = more cells survive
TPCA-1 + OSI-027 = compound: C1=CC(=CC=C1C2=CC(=C(S2)NC(=O)N)C(=O)N)F [TPCA-1] + COc1cccc2cc(-c3nc([C@H]4CC[C@H](C(=O)O)CC4)n4ncnc(N)c34)[nH]c12 [OSI-027] (partner 0.5 µM)
Method in brief: (§1)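 Lung cancer cell lines in 1536-well plates got either a single drug or a fixed anchor-drug dose together with five library-drug doses (not always all listed) in √10 steps, by pin tool, on the day after seeding. Nuclei were counted after 5 days, and relative viability is the treated-to-vehicle ratio of nuclei counts. Values are medians of duplicate plates.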

[1] = compound: C1/C(=C\C2=CC=CS2)/C(=O)/C(=C/C3=CC=CS3)/C1 + Cc1cc(Nc2cc(N3CCN(C)CC3)nc(Sc3ccc(NC(=O)C4CC4)cc3)n2)n[nH]1 [Tozasertib] (partner 0.1 µM)
Method in brief: as §1

[2] = compound: C[C@]12O[C@H](C[C@]1(O)CO)n1c3ccccc3c3c4c(c5c6ccccc6n2c5c31)CNC4=O [Lestaurtinib] + CS(=O)(=O)N1CCN(Cc2cc3nc(-c4cccc5[nH]ncc45)nc(N4CCOCC4)c3s2)CC1 [Pictilisib] (partner 1 µM)
Method in brief: as §1

[3] = compound: C[C@]12O[C@H](C[C@]1(O)CO)n1c3ccccc3c3c4c(c5c6ccccc6n2c5c31)CNC4=O [Lestaurtinib] + O=C(CCCCCCC(=O)Nc1ccccc1)NO [Vorinostat] (partner 1 µM)
Method in brief: as §1

| Cell Line | relative viability (TPCA-1 + OSI-027; first compound 0.04 µM) | relative viability (TPCA-1 + OSI-027; first compound 0.4 µM) | relative viability (TPCA-1 + OSI-027; first compound 1.265 µM) | relative viability (TPCA-1 + OSI-027; first compound 4 µM) | relative viability ([1]; first compound 0.2 µM) | relative viability ([1]; first compound 0.6325 µM) | relative viability ([1]; first compound 2 µM) | relative viability ([1]; first compound 6.325 µM) | relative viability ([1]; first compound 20 µM) | relative viability ([2]; first compound 0.005 µM) | relative viability ([2]; first compound 0.01581 µM) | relative viability ([2]; first compound 0.05 µM) | relative viability ([2]; first compound 0.1581 µM) | relative viability ([2]; first compound 0.5 µM) | relative viability ([3]; first compound 0.005 µM) | relative viability ([3]; first compound 0.01581 µM) | relative viability ([3]; first compound 0.05 µM) | relative viability ([3]; first compound 0.1581 µM) | relative viability ([3]; first compound 0.5 µM) | relative viability (TPCA-1 + OSI-027; first compound 0.1265 µM) |
| --- | --- | --- | --- | --- | --- | --- | --- | --- | --- | --- | --- | --- | --- | --- | --- | --- | --- | --- | --- | --- |
| NCI-H1650 | 0.639 | 0.682 | 0.798 | 0.531 | 0.492 | 0.445 | 0.395 | 0.435 | 0.343 | 0.594 | 0.662 | 0.566 | 0.463 | 0.153 | 0.667 | 0.528 | 0.784 | 0.54 | 0.491 |  |
| NCI-H1651 | 0.756 | 0.648 | 0.741 | 0.544 | 0.731 | 0.671 | 0.837 | 0.596 | 0.718 | 0.59 | 0.736 | 0.309 | 0.542 | 0.286 | 0.555 | 0.617 | 0.539 | 0.58 | 0.23 | 0.612 |
| NCI-H1666 | 0.856 | 0.851 | 0.883 | 0.865 | 0.574 | 0.658 | 0.609 | 0.538 | 0.538 | 0.46 | 0.486 | 0.39 | 0.358 | 0.388 | 1.1 | 1.22 | 1.24 | 0.998 | 0.799 | 0.788 |
| NCI-H1734 | 0.822 | 0.656 | 0.745 | 0.33 | 0.282 | 0.293 | 0.263 | 0.167 | 0.287 | 0.444 | 0.399 | 0.316 | 0.251 | 0.196 | 0.872 | 0.824 | 0.525 | 0.258 | 0.212 | 0.477 |
| NCI-H1755 | 0.755 | 0.804 | 0.539 | 0.496 | 0.64 | 0.583 | 0.582 | 0.539 | 0.549 | 0.444 | 0.492 | 0.211 | 0.269 | 0.175 | 0.654 | 0.74 | 0.674 | 0.397 | 0.356 | 0.621 |
| NCI-H1793 | 0.233 | 0.275 | 0.285 | 0.139 | 0.394 | 0.297 | 0.347 | 0.338 | 0.258 | 0.319 | 0.224 | 0.235 | 0.34 | 0.263 | 0.531 | 0.884 | 0.561 | 0.524 | 0.252 |  |
| NCI-H1915 | 0.695 | 0.676 | 0.509 | 0.467 | 0.428 | 0.456 | 0.447 | 0.422 | 0.446 | 0.945 | 0.966 | 0.654 | 0.418 | 0.282 | 0.512 | 0.489 | 0.427 | 0.325 | 0.162 | 0.563 |
| NCI-H1944 | 0.482 | 0.416 | 0.368 | 0.318 | 0.282 | 0.248 | 0.259 | 0.241 | 0.236 | 0.352 | 0.313 | 0.313 | 0.305 | 0.248 | 0.556 | 0.521 | 0.693 | 0.408 | 0.205 | 0.398 |
| NCI-H1975 | 0.836 | 0.676 | 0.633 | 0.295 | 0.71 | 0.742 |  | 0.678 | 0.699 | 0.275 | 0.252 | 0.205 | 0.217 | 0.171 | 0.755 | 0.735 | 0.617 | 0.578 | 0.382 | 0.737 |
| NCI-H1993 | 0.544 | 0.521 | 0.536 | 0.556 | 0.567 | 0.556 | 0.594 | 0.559 | 0.506 | 0.802 | 0.724 | 0.69 | 0.716 | 0.663 | 0.823 | 0.808 | 0.754 | 0.455 | 0.485 | 0.524 |
| NCI-H2009 | 0.773 | 0.623 | 0.406 | 0.327 | 0.764 | 0.814 | 0.752 | 0.657 | 0.81 | 0.795 | 0.691 | 0.43 | 0.54 | 0.149 | 0.782 | 0.759 | 0.665 | 0.689 | 0.501 | 0.647 |
| NCI-H2023 | 0.552 | 0.364 | 0.32 | 0.187 | 0.428 | 0.507 | 0.397 | 0.346 | 0.259 | 0.255 | 0.27 | 0.167 | 0.155 | 0.0782 | 0.639 | 0.445 | 0.577 | 0.371 | 0.117 | 0.335 |
| NCI-H2085 | 0.978 | 0.731 | 0.462 | 0.354 | 0.867 | 0.898 | 0.792 | 0.799 | 0.718 | 0.482 | 0.474 | 0.465 | 0.476 | 0.49 | 0.741 | 0.812 | 0.869 | 0.751 | 0.661 | 0.689 |
